Values of other authors, collected in patent publication US20210353650A1 (priority 2020, published 2021).

What was measured:
[1] = system: Vero African green monkey kidney epithelial cells; settings: Vero cells used in the CPE assay; 2012 study
[2] = nonhuman primates, daily administration of 10 mg/kg; EMA 2020
[3] = system: Vero E6 cells

## CCC(CC)COC(=O)[C@H](C)N[P@](=O)(OC[C@H]1O[C@@](C#N)(c2ccc3c(N)ncnn23)[C@H](O)[C@@H]1O)Oc1ccccc1 [Remdesivir]
[1]
  cytotoxicity toward host cells: without causing cytotoxicity
[2]
  intracellular levels of the triphosphate form: sustained intracellular levels
[3]
  cytotoxic concentration: > 100 mM
